The source of these data is patent US20190070170A1, “METHOD OF S[…]-1” (Macau University of Science and Technology, priority 2017, published 2019).

In one test the test system is p65. Nature of the test: Nuclear translocation of p65 in LPS-stimulated rat peritoneal macrophages (immunofluorescence, western blotting). As to conditions: 640 μM SIN 1 h, LPS 30 min. It counts as cell-based. As to the method:
Whole-cell and nuclear proteins were obtained using RIPA lysis buffer (CST, Boston, Mass., USA) and Nuclear and Cytoplasmic Extraction Reagents kit from Thermo Scientific (Asheville, N.C., USA), respectively. For immunoblotting, proteins from whole-cell, cytoplasm, nuclear, and microsomal fractions were separated on SDS-PAGE, then transferred onto a nitrocellulose membrane from GE Healthcare Life Sciences (Buckinghamshire, UK), and incubated with 5% skimmed milk at room temperature for 1 h. Membranes were incubated with the primary antibodies including cPLA2, p-cPLA2, COX-1 and p65 (all dilutions 1:1000), and COX-2 (dilution 1:500) from Cell Signaling Technology (Boston, Mass., USA); and mPGES-1 (dilution 1:200) from Cayman Chemical (Ann Arbor, Mich., USA); and β-actin (dilution 1:1000) from Santa Cruz Biotechnology (Santa Cruz, Calif., USA); and TBP (dilution 1:200) was from Abcam (Cambridge, UK) at 4° C. overnight and the band was visualized by incubating the anti-rabbit or anti-mouse secondary antibodies (dilution 1:10,000) from Li-COR (Lincoln, Nebr., USA) at room temperature for 1 h. The levels of protein expression were measured using Odyssey v3.0 software from Li-COR (Lincoln, Nebr., USA).
RAW 264.7 cells were seeded on glass coverslip at a density 2.0×10^5 cells/well in 6-well plates and incubated for 24 h. […]

Another test deals with mPGES-1. Nature of the test: mPGES-1 protein expression in hind paws of CIA DBA/1 mice. It counts as in vivo. As to conditions: SIN 100 mg/kg i.p. or MTX 10 mg/kg/week p.o. As to the method:
Female DBA/1 mice (8-9 weeks old) were purchased from Shanghai SiLaike (SLAC) Laboratory Animal Company (Shanghai, China) and fed with a chow diet and water at room temperature. Equal volume of complete Freuend's adjuvant (CFA) and Bovine Type II Collagen (CII) were mixed and emulsified using a homogenizer (13,000 rpm) on ice. On day 0, DBA/1 mice were immunized by injecting 50 μl of CII in CFA in the tail, approximately 2 cm from the base of the tail. […] The incidence of joint swelling in each group was recorded every two days since drug treatment. […]
Frozen paws were pulverized in liquid nitrogen using a stainless steel mortar and pestle, then re-suspended in 8 volumes of ice-cold PBS from Invitrogen (San Diego, Calif., USA) with 2.6 mM DTT from Promega (Madison, Wis., USA) and 2×Complete Protease Inhibitor mixture from Roche (Mannheim, Germany), and homogenized on ice bath using a tissue homogenizer from T25 digital, IKA (Stanfen, Germany) at 10,000 rpm/min for 5 min. […] The protein concentrations were measured using a Bio-Rad protein assay kit (Hercules, Calif., USA). […]
Whole-cell and nuclear proteins were obtained using RIPA lysis buffer (CST, Boston, Mass., USA) and Nuclear and Cytoplasmic Extraction Reagents kit from Thermo Scientific (Asheville, N.C., USA), respectively. […] The levels of protein expression were measured using Odyssey v3.0 software from Li-COR (Lincoln, Nebr., USA).

For another test, the system named is PGD2. The test can be described thus: PGD2 level in culture supernatants of LPS-activated rat peritoneal macrophages (ELISA). It counts as cell-based. As to conditions: LPS-stimulated rat peritoneal macrophages, culture supernatant. As for the experimental part: Sprague-Dawley (SD) rats from the University of Hong Kong were housed in cages with free access to food and water. Peritoneal macrophages of SD rats were isolated as described in Liu J. et al., Pharmacological research 2016, 111:303-315. Briefly, untreated rats were sacrificed and after laparotomy, about 50 ml cold sterile Hank's balanced salt solution (HBSS) was used to lavage the peritoneal cavity at twice, and then the peritoneal lavage fluid was collected and centrifuged at 1500 rpm for 10 min. The cell pellets was suspended at a density 1.5×10^6 cells/ml in pre-hearted DMEM medium with 10% heat-inactivated FBS, penicillin G (100 units/ml), streptomycin ([…]), and L-glutamine (2 mM), followed by seeding in 6-well plates at a density of 4.5×10^6 cells and incubation for 2 h. Then the medium were discarded to remove the non-adherent cells. The adherent cells were further washed for two times with pre-heated DMEM medium to remove floating cells. Next, cells were pre-treated with various concentration of SIN for 1 h, followed by stimulation with LPS (1 μg/ml).
RAW264.7 cells and rat peritoneal macrophages were seeded in a 96-well plate at density of 1.4×10^4 and 1.5×10^5 cells, respectively. […] The optical density was measured at 570 nm against a reference wavelength of 650 nm using a microplate UV/VIS spectrophotometer (Tecan, Mannedorf, Switzerland). […]

For `COC1=C[C@@H]2[C@@H]3Cc4ccc(OC)c(O)c4[C@]2(CCN3C)CC1=O` [SIN, sinomenine], in the test with p65, the “nuclear translocation of p65” value is on record as “does not produce observable inhibitory effects”. In addition, in the test on mPGES-1, the “mPGES-1 protein expression in inflamed hind paws” value is listed as “significantly decreased”. Besides, in the test with PGD2, the “level of PGD2” value is reported as “no significant influence”.
